Earlier results on one substance are cited in patent US20260284157A1, “POWDER COMPOSITION COMPRISING A HAEMOSTATIC AGENT” (WOMED, priority 2023, published 2026).

For the series the following is noted: certificate of analysis of the product (Sigma Aldrich).

Regarding Thrombin, the “activity of the protein” value is greater than 400 NIH units/mg protein.
